{"source": "patent US7399762B2", "about": "“Opioid receptor agonist compounds and their use in treatment of pain” (Research Triangle Institute, priority 2005, dated 2008)", "format_in_all_cases": "biochemical", "key": {"[1]": {"molecular_target": "T1, human kappa opioid receptor (Homo sapiens, UniProt P41145)", "T1 construct": "expressed in transfected cells; host or cells: CHO cells (membrane homogenates)", "T1 sequence (P41145 whole entry)": "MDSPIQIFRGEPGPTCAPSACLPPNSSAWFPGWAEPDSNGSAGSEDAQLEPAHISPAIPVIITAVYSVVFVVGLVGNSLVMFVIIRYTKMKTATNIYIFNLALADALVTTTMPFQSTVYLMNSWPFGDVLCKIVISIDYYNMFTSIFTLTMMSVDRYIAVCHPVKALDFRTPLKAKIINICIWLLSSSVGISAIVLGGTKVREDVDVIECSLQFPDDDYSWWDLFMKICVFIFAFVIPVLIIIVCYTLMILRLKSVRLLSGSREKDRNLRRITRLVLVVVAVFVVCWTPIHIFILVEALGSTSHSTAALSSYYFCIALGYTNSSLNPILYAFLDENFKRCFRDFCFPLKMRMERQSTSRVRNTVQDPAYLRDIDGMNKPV", "assay": "Apparent affinity (Ke): shift of U69,593 dose response curve in [35S]GTP-γ-S binding", "description": "Determination of apparent affinity (Ke). The ability of a single concentration of test compound to shift the U69,593 (full kappa opioid receptor agonist) dose response curve to the right was used to determine the apparent affinity (Ke) of the test compounds. Assay conditions and analysis of the data were identical to that detailed for the determination of intrinsic activity except that membrane homogenates from CHO cells expressing the human kappa opioid receptor were used, and a single, identical concentration of test compound was included with each assayed concentration of kappa agonist. […]"}, "human mu opioid receptor": {"molecular_target": "T2, human mu opioid receptor (Homo sapiens, UniProt P35372)", "T2 construct": "expressed in transfected cells; host or cells: CHO cells (membrane homogenates)", "T2 sequence (P35372 whole entry)": "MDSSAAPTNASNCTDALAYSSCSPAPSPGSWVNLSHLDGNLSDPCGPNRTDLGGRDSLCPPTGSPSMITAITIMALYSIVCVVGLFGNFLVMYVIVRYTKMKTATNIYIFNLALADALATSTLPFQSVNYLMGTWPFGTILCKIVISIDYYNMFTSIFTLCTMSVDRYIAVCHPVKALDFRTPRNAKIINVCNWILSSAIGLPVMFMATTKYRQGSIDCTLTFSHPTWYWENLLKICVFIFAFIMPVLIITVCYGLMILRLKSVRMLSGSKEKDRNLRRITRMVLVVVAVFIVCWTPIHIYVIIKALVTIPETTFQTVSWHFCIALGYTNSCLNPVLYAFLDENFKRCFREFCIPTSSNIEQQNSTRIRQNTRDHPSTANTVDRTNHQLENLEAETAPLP", "assay": "[35S]GTP-γ-S binding stimulation, intrinsic activity at mu receptor", "details": "for intrinsic activity at the mu opioid receptor (in words): compared with DAMGO", "protocol": "(§1) Determination of intrinsic activity. Test compounds 2.8 and 2.11 were assayed for their ability to stimulate [35S]GTP-γ-S binding in CHO cell membrane homogenates expressing either the human mu or human delta opioid receptor. The compounds were assayed in triplicate at eight different concentrations. […] The membranes were incubated with one of eight concentrations of positive control or test compound, 0.1 nM [35S]GTP-γ-S and 10 μM GDP in a 50 mM HEPES buffer (pH 7.4) at room temperature for one hour, after which bound radioligand was separated from free via rapid vacuum filtration over GF-B filters using a Brandel Scientific (Gaithersburg, MD) 96-well harvester. Bound radioactivity was determined using a TopCount 12-detector instrument (Packard Instruments) using standard scintillation counting techniques. The data were normalized to samples containing vehicle (basal binding), and a three-parameter logistic curve fit to the data using Prism (version 3.0, GraphPad Software, Inc., San Diego, Calif.). The EC50 and upper asymptote (Emax) were calculated for each compound and the data reported as mean ±SEM."}, "[2]": {"molecular_target": "T3, human delta opioid receptor (Homo sapiens, UniProt P41143)", "T3 construct": "expressed in transfected cells; host or cells: CHO cells (membrane homogenates)", "T3 sequence (P41143 whole entry)": "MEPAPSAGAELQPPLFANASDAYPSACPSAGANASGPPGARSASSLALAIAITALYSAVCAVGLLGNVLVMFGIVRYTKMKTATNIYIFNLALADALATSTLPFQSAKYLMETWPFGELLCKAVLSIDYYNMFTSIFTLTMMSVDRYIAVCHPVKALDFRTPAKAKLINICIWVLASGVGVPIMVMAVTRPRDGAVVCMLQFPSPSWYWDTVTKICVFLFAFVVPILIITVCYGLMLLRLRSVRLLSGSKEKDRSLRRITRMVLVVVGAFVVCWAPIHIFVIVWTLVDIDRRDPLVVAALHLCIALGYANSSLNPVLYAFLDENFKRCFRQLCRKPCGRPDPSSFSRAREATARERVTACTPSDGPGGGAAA", "assay": "[35S]GTP-γ-S binding stimulation, intrinsic activity at delta receptor", "details": "for intrinsic activity at the delta opioid receptor (in words): compared with DPDPE; for Emax: read-out: Agonist δ Emax (% DPDPE)", "protocol": "as §1"}}}
{"smiles": "C[C@@H]1CN(CCCc2ccccc2)[C@H]2C[C@H](N)C[C@]1(c1cccc(O)c1)C2", "note": "[Compound 2.8, (−)-3-[(1 R,4S,5S,7R)-7-Amino-4-methyl-2-(3-phenylpropyl)-2-aza-bicyclo[3.3.1]non-5-yl]phenol]", "values": [{"measurement": "activity at the kappa opioid receptor (in words)", "setting": "[1]", "value": "good inhibitor"}, {"measurement": "intrinsic activity at the mu opioid receptor (in words)", "setting": "human mu opioid receptor", "value": "partial agonist"}, {"measurement": "Emax", "setting": "human mu opioid receptor; relative to Emax of DAMGO, mean ±SEM, read-out: Agonist μ Emax (% DAMGO)", "value": "74 ± 12", "unit": "%"}, {"measurement": "intrinsic activity at the delta opioid receptor (in words)", "setting": "[2]", "value": "potent full agonist"}, {"measurement": "Emax", "setting": "[2]", "value": "101 ± 14", "unit": "%"}]}
{"smiles": "CNC1CC2CC(c3cccc(O)c3)(C1)C(C)CN2CCCc1ccccc1", "note": "(centres unmarked) [Compound 2.11, 5-(3-Hydroxyphenyl)-4-methyl-7-methylamino-2-(3-phenylprop-1-yl)-2-azabicyclo[3.3.1]nononane]", "values": [{"measurement": "activity at the kappa opioid receptor (in words)", "setting": "[1]", "value": "good inhibitor"}, {"measurement": "intrinsic activity at the mu opioid receptor (in words)", "setting": "human mu opioid receptor", "value": "full agonist"}, {"measurement": "maximum stimulation of [35S]GTP-γ-S binding compared with DAMGO (t-test)", "setting": "human mu opioid receptor; p>0.05", "value": "not statistically different"}, {"measurement": "intrinsic activity at the delta opioid receptor (in words)", "setting": "[2]", "value": "partial agonist"}, {"measurement": "Emax", "setting": "[2]", "value": "79.7 ± 7.7", "unit": "%"}]}
{"smiles": "C[C@@H](NC(=O)[C@@H](N)Cc1ccc(O)cc1)C(=O)NCC(=O)N(C)[C@@H](Cc1ccccc1)C(=O)NCCO", "note": "[DAMGO, (D-Ala^2,MePhe^4,Gly-ol^5)enkephalin, reference compound]", "values": [{"measurement": "intrinsic activity at the mu opioid receptor (in words)", "setting": "human mu opioid receptor", "value": "full agonist"}]}
